The source of these data is US8669271B2 (Boehringer Ingelheim International GmbH, priority 2010, dated 2014).

The target in this assay is T1, human GPR119 (Homo sapiens, UniProt Q8TDV5).
T1 construct: expression vector for human GPR119 cDNA (Acc. No. NP_848566); expressed in transfected cells
T1 sequence (Q8TDV5 1-335): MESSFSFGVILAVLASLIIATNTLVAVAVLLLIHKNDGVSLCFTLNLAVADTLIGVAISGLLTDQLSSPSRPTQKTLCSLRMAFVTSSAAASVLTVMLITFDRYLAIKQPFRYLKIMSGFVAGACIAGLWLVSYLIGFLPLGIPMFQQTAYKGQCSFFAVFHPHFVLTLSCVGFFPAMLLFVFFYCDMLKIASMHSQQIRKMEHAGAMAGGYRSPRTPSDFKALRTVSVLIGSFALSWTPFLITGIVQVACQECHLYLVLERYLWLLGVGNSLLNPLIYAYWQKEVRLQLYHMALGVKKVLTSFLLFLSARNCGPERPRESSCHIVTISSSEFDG
Put plainly: AlphaScreen cAMP assay in Min-6/hGPR119 cells (activation of GPR119, intracellular cAMP). To be noted: MIN6 cells stably transfected with human GPR119; cAMP by AlphaScreen after 45 minutes incubation at room temperature. Type of assay: cell-based. An outline of the steps: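 MIN6 cells stably expressing human GPR119, seeded 24 h before treatment; compounds applied 45 min at ~20 °C in Hepes-buffered saline pH 7.4 with 0.5 mM IBMX, 0.1% BSA, 1% DMSO final. Intracellular cAMP measured by AlphaScreen.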
On to `CC(C)(C)OC(=O)N1CCC(C2(C)Cc3cc(C4CCN(S(C)(=O)=O)CC4)ncc3O2)CC1` (stereo not shown) [Example 81, 4-[5-(1-Methanesulfonyl-piperidin-4-yl)-2-methyl-2,3-dihydro-furo[2,3-c]pyridin-2-yl]-piperidine-1-carboxylic acid tert-butyl ester], for which a half-maximal effect (EC50) was put at 53 nM. The value for `CC(C)(C)OC(=O)N1CCC(C2(C)Cc3cc(-c4ccc(CS(C)(=O)=O)cc4F)ncc3O2)CC1` (stereo not shown) [Example 82] was 21 nM; that for `CC(C)(C)OC(=O)N1CCC([C@]2(C)Cc3cc(-c4ccc(S(C)(=O)=O)cc4)ncc3O2)CC1` [Example 83, (S)-4-[5-(4-Methanesulfonyl-phenyl)-2-methyl-2,3-dihydro-furo[2,3-c]pyridin-2-yl]-piperidine-1-carboxylic acid tert-butyl ester] was 4 nM. `CC(C)(C)OC(=O)N1CCC([C@@]2(C)Cc3cc(-c4ccc(S(C)(=O)=O)cc4)ncc3O2)CC1` [Example 84, (R)-4-[5-(4-Methanesulfonyl-phenyl)-2-methyl-2,3-dihydro-furo[2,3-c]pyridin-2-yl]-piperidine-1-carboxylic acid tert-butyl ester] gave an EC50 of 172 nM. The figure for `CC1(OC(=O)N2CCC([C@]3(C)Cc4cc(-c5ccc(S(C)(=O)=O)cc5)ncc4O3)CC2)CC1` [Example 85, (S)-4-[5-(4-Methanesulfonyl-phenyl)-2-methyl-2,3-dihydro-furo[2,3-c]pyridin-2-yl]-piperidine-1-carboxylic acid 1-methyl-cyclopropyl ester] is 7 nM; for `CC(C)OC(=O)N1CCC([C@]2(C)Cc3cc(-c4ccc(S(C)(=O)=O)cc4)ncc3O2)CC1` [Example 86, (S)-4-[5-(4-Methanesulfonyl-phenyl)-2-methyl-2,3-dihydro-furo[2,3-c]pyridin-2-yl]-piperidine-1-carboxylic acid isopropyl ester] it is 11 nM; for `CC1(OC(=O)N2CCC([C@]3(C)Cc4cc(C5=CCN(S(C)(=O)=O)CC5)ncc4O3)CC2)CC1` [Example 88, (S)-4-[5-(1-Methanesulfonyl-1,2,3,6-tetrahydro-pyridin-4-yl)-2-methyl-2,3-dihydro-furo[2,3-c]pyridin-2-yl]-piperidine-1-carboxylic acid 1-methyl-cyclopropyl ester] it is 13 nM. The value for `CC(C)OC(=O)N1CCC([C@]2(C)Cc3cc(C4=CCN(S(C)(=O)=O)CC4)ncc3O2)CC1` [Example 89, (S)-4-[5-(1-Methanesulfonyl-1,2,3,6-tetrahydro-pyridin-4-yl)-2-methyl-2,3-dihydro-furo[2,3-c]pyridin-2-yl]-piperidine-1-carboxylic acid isopropyl ester] was 7 nM. For `CC(C)(C)OC(=O)N1CCC(C2Cc3cc(N4CCN(S(C)(=O)=O)CC4)ncc3O2)CC1` (stereo not shown) [Example 90, 4-[5-(4-Methanesulfonyl-piperazin-1-yl)-2,3-dihydro-furo[2,3-c]pyridin-2-yl]-piperidine-1-carboxylic acid tert-butyl ester], the EC50 came to 19 nM. The figure for `CC(C)(C)OC(=O)N1CCC(C2Cc3nc(N4CCN(S(C)(=O)=O)CC4)ncc3O2)CC1` (stereo not shown) [Example 91, 4-[2-(4-Methanesulfonyl-piperazin-1-yl)-6,7-dihydro-furo[3,2-d]pyrimidin-6-yl]-piperidine-1-carboxylic acid tert-butyl ester] is 603 nM. The value for `CC(C)(C)OC(=O)N1CCC(C2Cc3cc(C4=CCN(S(C)(=O)=O)CC4)ncc3O2)CC1` (stereo not shown) [Example 92, 4-[5-(1-Methanesulfonyl-1,2,3,6-tetrahydro-pyridin-4-yl)-2,3-dihydro-furo[2,3-c]pyridin-2-yl]-piperidine-1-carboxylic acid tert-butyl ester] was 12 nM. The figure for `CC(C)(C)OC(=O)N1CCC(C2Cc3cc(C4CCN(S(C)(=O)=O)CC4)ncc3O2)CC1` (stereo not shown) [Example 93, 4-[5-(1-Methanesulfonyl-piperidin-4-yl)-2,3-dihydro-furo[2,3-c]pyridin-2-yl]-piperidine-1-carboxylic acid tert-butyl ester] is 32 nM. In turn, `CC(C)(C)OC(=O)N1CCC(C2Cc3cc(C4=CCN(S(C)(=O)=O)CC4)ccc3O2)CC1` (stereo not shown) [Example 94, 4-[5-(1-Methanesulfonyl-1,2,3,6-tetrahydro-pyridin-4-yl)-2,3-dihydro-benzofuran-2-yl]-piperidine-1-carboxylic acid tert-butyl ester] had an EC50 of 7 nM.

Molecule `CC(C)OC(=O)N1CCC(C2Cc3cc(C4=CCN(S(C)(=O)=O)CC4)ncc3O2)CC1` (stereo not shown) [Example 95, 4-[5-(1-Methanesulfonyl-1,2,3,6-tetrahydro-pyridin-4-yl)-2,3-dihydro-furo[2,3-c]pyridin-2-yl]-piperidine-1-carboxylic acid isopropyl ester] gave an EC50 of 17 nM.

Regarding `CS(=O)(=O)N1CC=C(c2cc3c(cn2)OC(C2CCN(C(=O)OC4CCC4)CC2)C3)CC1` (stereo not shown) [Example 96, 4-[5-(1-Methanesulfonyl-1,2,3,6-tetrahydro-pyridin-4-yl)-2,3-dihydro-furo[2,3-c]pyridin-2-yl]-piperidine-1-carboxylic acid cyclobutyl ester], the response was half-maximal at 15 nM (EC50).

`CC1(OC(=O)N2CCC(C3Cc4cc(C5=CCN(S(C)(=O)=O)CC5)ncc4O3)CC2)CC1` (stereo not shown) [Example 97, 4-[5-(1-Methanesulfonyl-1,2,3,6-tetrahydro-pyridin-4-yl)-2,3-dihydro-furo[2,3-c]pyridin-2-yl]-piperidine-1-carboxylic acid 1-methyl-cyclopropyl ester] registered an EC50 of 7 nM. `CCS(=O)(=O)N1CCN(c2cc3c(cn2)OC(C2CCN(C(=O)OC(C)(C)C)CC2)C3)CC1` (stereo not shown) [Example 98]: the EC50 was determined as 15 nM. The value for `CC(C)S(=O)(=O)N1CCN(c2cc3c(cn2)OC(C2CCN(C(=O)OC(C)(C)C)CC2)C3)CC1` (stereo not shown) [Example 99, 4-{5-[4-(Propane-2-sulfonyl)-piperazin-1-yl]-2,3-dihydro-furo[2,3-c]pyridin-2-yl}-piperidine-1-carboxylic acid tert-butyl ester] was 48 nM; that for `CCCS(=O)(=O)N1CCN(c2cc3c(cn2)OC(C2CCN(C(=O)OC(C)(C)C)CC2)C3)CC1` (stereo not shown) [Example 100, 4-{5-[4-(Propane-1-sulfonyl)-piperazin-1-yl]-2,3-dihydro-furo[2,3-c]pyridin-2-yl}-piperidine-1-carboxylic acid ten-butyl ester] was 9 nM; that for `CC(C)(C)OC(=O)N1CCC(C2Cc3cc(N4CCN(S(=O)(=O)C5CC5)CC4)ncc3O2)CC1` (stereo not shown) [Example 101, 4-[5-(4-Cyclopropanesulfonyl-piperazin-1-yl)-2,3-dihydro-furo[2,3-c]pyridin-2-yl]-piperidine-1-carboxylic acid tert-butyl ester] was 23 nM. Take `CN(C1CCN(c2cc3c(cn2)OC(C2CCN(C(=O)OC(C)(C)C)CC2)C3)CC1)S(C)(=O)=O` (stereo not shown) [Example 102, 4-{5-[4-(Methanesulfonyl-methyl-amino)-piperidin-1-yl]-2,3-dihydro-furo[2,3-c]pyridin-2-yl}-piperidine-1-carboxylic acid tert-butyl ester]: a half-maximal response (EC50) required 637 nM. `CC(C)OC(=O)N1CCC(C2Cc3cc(-c4cccc(C#N)c4)ccc3O2)CC1` (stereo not shown) [Example 103, 4-[5-(3-Cyano-phenyl)-2,3-dihydro-benzofuran-2-yl]-piperidine-1-carboxylic acid isopropyl ester] registered an EC50 of 186 nM.

Molecule `CC(=O)c1ccc(-c2ccc3c(c2)CC(C2CCN(C(=O)OC(C)C)CC2)O3)cc1` (stereo not shown) [Example 104] returned an EC50 of 200 nM. The value for `CC(C)OC(=O)N1CCC(C2Cc3cc(-c4ccc(CC#N)cc4)ccc3O2)CC1` (stereo not shown) [Example 105] was 99 nM; that for `Cc1noc(C)c1-c1ccc2c(c1)CC(C1CCN(C(=O)OC(C)C)CC1)O2` (stereo not shown) [Example 106] was 1710 nM. The value for `CC(C)OC(=O)N1CCC(C2Cc3cc(-c4cccc(S(C)(=O)=O)c4)ccc3O2)CC1` (stereo not shown) [Example 107] was 1120 nM; that for `COc1ncc(-c2ccc3c(c2)CC(C2CCN(C(=O)OC(C)C)CC2)O3)cn1` (stereo not shown) [Example 108] was 1980 nM. `CCNC(=O)c1ccc(-c2ccc3c(c2)CC(C2CCN(C(=O)OC(C)C)CC2)O3)cc1` (stereo not shown) [Example 109] came in with an EC50 of 28 nM. The figure for `CC(C)OC(=O)N1CCC(C2Cc3cc(-c4ccc(S(N)(=O)=O)cc4)ccc3O2)CC1` (stereo not shown) [Example 110] is 52 nM; for `CC(C)OC(=O)N1CCC(C2Cc3cc(-c4ccc(C#N)c(F)c4)ccc3O2)CC1` (stereo not shown) [Example 111] it is 152 nM; for `CC(C)OC(=O)N1CCC(C2Cc3cc(-c4cnc(C#N)nc4)ccc3O2)CC1` (stereo not shown) [Example 112] it is 320 nM. `CC(C)OC(=O)N1CCC(C2Cc3cc(-c4ccncc4F)ccc3O2)CC1` (stereo not shown) [Example 113] gave an EC50 of 167 nM. Consider `COC(=O)c1ccc(-c2ccc3c(c2)CC(C2CCN(C(=O)OC(C)C)CC2)O3)cn1` (stereo not shown) [Example 114], for which the EC50 stood at 527 nM.

Regarding `CC(C)OC(=O)N1CCC(C2Cc3cc(-c4ccc(S(C)(=O)=O)cc4F)ccc3O2)CC1` (stereo not shown) [Example 115], the EC50 is 42 nM. The figure for `COC(=O)c1cc(-c2ccc3c(c2)CC(C2CCN(C(=O)OC(C)C)CC2)O3)cs1` (stereo not shown) [Example 116] is 770 nM; for `CC(C)OC(=O)N1CCC(C2Cc3cc(-c4ccc(C(F)(F)F)nc4)ccc3O2)CC1` (stereo not shown) [Example 117] it is 374 nM. The figure for `CC(C)OC(=O)N1CCC(C2Cc3cc(-c4ccc(S(C)(=O)=O)c(F)c4)ccc3O2)CC1` (stereo not shown) [Example 118] is 15 nM.
